The source made the active and inactive calls. The rule behind the calls is not given here.
Experiments:
[1] = tested on: Mus musculus; experiment: Acute toxicity in Swiss albino mouse assessed as serum SGOT level at 50 mg/kg, po qd administered as single dose for 7 days (reference value: 34.32 +/- 3.78 U/L); assay type: organism-based; details: in vivo, 168 h
[2] = Antiproliferative activity against HEK293 cells after 48 hrs by SRB assay; assay type: cell-based; details: Homo sapiens, HEK293, 48 h
[3] = tested on: FaDu; experiment: Inhibition of topoisomerase-2 in human FADU cells at 2 times antiproliferative IC50 after 24 hrs by ELISA relative to control; assay type: cell-based
[4] = tested on: FaDu; experiment: Induction of apoptosis in human FADU cells assessed as increase in PARP cleavage at 5 to 10 uM by Western blot method; assay type: functional, cell-based
[5] = tested on: Mus musculus; experiment: Acute toxicity in Swiss albino mouse assessed as mortality up to 1000 mg/kg, po qd administered as single dose for 7 days; assay type: organism-based; details: in vivo, 168 h
[6] = tested on: Mus musculus; experiment: Acute toxicity in Swiss albino mouse assessed as changes in gait up to 1000 mg/kg, po qd administered as single dose for 7 days; assay type: organism-based; details: in vivo, 168 h
[7] = tested on: Mus musculus; experiment: Acute toxicity in Swiss albino mouse assessed as changes in relative weight of liver up to 1000 mg/kg, po qd administered as single dose for 7 days; assay type: organism-based; details: in vivo, 168 h
[8] = tested on: Mus musculus; experiment: Acute toxicity in Swiss albino mouse assessed as changes in absolute weight of kidney up to 1000 mg/kg, po qd administered as single dose for 7 days; assay type: organism-based; details: in vivo, 168 h
[9] = tested on: Mus musculus; experiment: Acute toxicity in Swiss albino mouse assessed as changes in relative weight of spleen up to 1000 mg/kg, po qd administered as single dose for 7 days; assay type: organism-based; details: in vivo, 168 h
[10] = tested on: Mus musculus; experiment: Acute toxicity in Swiss albino mouse assessed as changes in absolute weight of heart up to 1000 mg/kg, po qd administered as single dose for 7 days; assay type: organism-based; details: in vivo, 168 h
[11] = tested on: Mus musculus; experiment: Acute toxicity in Swiss albino mouse assessed as serum haemoglobin level at 50 mg/kg, po qd administered as single dose for 7 days (reference value: 13.29 +/- 0.46 g/dl); assay type: organism-based; details: in vivo, 168 h
[12] = tested on: Mus musculus; experiment: Acute toxicity in Swiss albino mouse assessed as serum haemoglobin level at 1000 mg/kg, po qd administered as single dose for 7 days (reference value: 13.29 +/- 0.46 g/dl); assay type: organism-based; details: in vivo, 168 h
[13] = tested on: Mus musculus; experiment: Acute toxicity in Swiss albino mouse assessed as serum RBC level at 5 mg/kg, po qd administered as single dose for 7 days (reference value: 9.07 +/- 1.13 million/mm3); assay type: organism-based; details: in vivo, 168 h
[14] = tested on: Mus musculus; experiment: Acute toxicity in Swiss albino mouse assessed as serum RBC level at 50 mg/kg, po qd administered as single dose for 7 days (reference value: 9.07 +/- 1.13 million/mm3); assay type: organism-based; details: in vivo, 168 h
[15] = tested on: Mus musculus; experiment: Acute toxicity in Swiss albino mouse assessed as serum RBC level at 300 mg/kg, po qd administered as single dose for 7 days (reference value: 9.07 +/- 1.13 million/mm3); assay type: organism-based; details: in vivo, 168 h
[16] = tested on: Mus musculus; experiment: Acute toxicity in Swiss albino mouse assessed as serum WBC level at 300 mg/kg, po qd administered as single dose for 7 days (reference value: 8.64 +/- 0.42 10^3/mm3); assay type: organism-based; details: in vivo, 168 h
[17] = tested on: Mus musculus; experiment: Acute toxicity in Swiss albino mouse assessed as serum WBC level at 1000 mg/kg, po qd administered as single dose for 7 days (reference value: 8.64 +/- 0.42 10^3/mm3); assay type: organism-based; details: in vivo, 168 h
[18] = tested on: Mus musculus; experiment: Acute toxicity in Swiss albino mouse assessed as serum ALP level at 5 mg/kg, po qd administered as single dose for 7 days (reference value: 292.13 +/- 40.29 U/L); assay type: organism-based; details: in vivo, 168 h
[19] = tested on: Mus musculus; experiment: Acute toxicity in Swiss albino mouse assessed as serum ALP level at 50 mg/kg, po qd administered as single dose for 7 days (reference value: 292.13 +/- 40.29 U/L); assay type: organism-based; details: in vivo, 168 h
[20] = tested on: Mus musculus; experiment: Acute toxicity in Swiss albino mouse assessed as serum ALP level at 300 mg/kg, po qd administered as single dose for 7 days (reference value: 292.13 +/- 40.29 U/L); assay type: organism-based; details: in vivo, 168 h
[21] = tested on: Mus musculus; experiment: Acute toxicity in Swiss albino mouse assessed as serum SGPT level at 300 mg/kg, po qd administered as single dose for 7 days (reference value: 23.06 +/- 1.92 U/L); assay type: organism-based; details: in vivo, 168 h
[22] = tested on: Mus musculus; experiment: Acute toxicity in Swiss albino mouse assessed as serum albumin level at 5 mg/kg, po qd administered as single dose for 7 days (reference value: 2.49 +/- 0.17 g/dl); assay type: organism-based; details: in vivo, 168 h
[23] = tested on: Mus musculus; experiment: Acute toxicity in Swiss albino mouse assessed as serum albumin level at 1000 mg/kg, po qd administered as single dose for 7 days (reference value: 2.49 +/- 0.17 g/dl); assay type: organism-based; details: in vivo, 168 h
[24] = tested on: Mus musculus; experiment: Acute toxicity in Swiss albino mouse assessed as serum creatinine level at 50 mg/kg, po qd administered as single dose for 7 days (reference value: 0.09 +/- 0.01 mg/dl); assay type: organism-based; details: in vivo, 168 h
[25] = tested on: Mus musculus; experiment: Acute toxicity in Swiss albino mouse assessed as serum creatinine level at 300 mg/kg, po qd administered as single dose for 7 days (reference value: 0.09 +/- 0.01 mg/dl); assay type: organism-based; details: in vivo, 168 h
[26] = tested on: Mus musculus; experiment: Acute toxicity in Swiss albino mouse assessed as serum creatinine level at 1000 mg/kg, po qd administered as single dose for 7 days (reference value: 0.09 +/- 0.01 mg/dl); assay type: organism-based; details: in vivo, 168 h
[27] = tested on: Mus musculus; experiment: Acute toxicity in Swiss albino mouse assessed as serum triglycerides level at 5 mg/kg, po qd administered as single dose for 7 days (reference value: 107.9 +/- 10.7 mg/dl); assay type: organism-based; details: in vivo, 168 h
[28] = tested on: Mus musculus; experiment: Acute toxicity in Swiss albino mouse assessed as serum triglycerides level at 300 mg/kg, po qd administered as single dose for 7 days (reference value: 107.9 +/- 10.7 mg/dl); assay type: organism-based; details: in vivo, 168 h
[29] = tested on: Mus musculus; experiment: Acute toxicity in Swiss albino mouse assessed as serum protein level at 5 mg/kg, po qd administered as single dose for 7 days (reference value: 2.91 +/- 0.31 mg/ml); assay type: organism-based; details: in vivo, 168 h
[30] = tested on: Mus musculus; experiment: Acute toxicity in Swiss albino mouse assessed as serum protein level at 300 mg/kg, po qd administered as single dose for 7 days (reference value: 2.91 +/- 0.31 mg/ml); assay type: organism-based; details: in vivo, 168 h
[31] = tested on: Mus musculus; experiment: Acute toxicity in Swiss albino mouse assessed as serum cholesterol level at 50 mg/kg, po qd administered as single dose for 7 days (reference value: 68.37 +/- 4.42 mg/dl); assay type: organism-based; details: in vivo, 168 h
[32] = tested on: Mus musculus; experiment: Acute toxicity in Swiss albino mouse assessed as serum cholesterol level at 300 mg/kg, po qd administered as single dose for 7 days (reference value: 68.37 +/- 4.42 mg/dl); assay type: organism-based; details: in vivo, 168 h
[33] = tested on: Mus musculus; experiment: Acute toxicity in Swiss albino mouse assessed as serum cholesterol level at 1000 mg/kg, po qd administered as single dose for 7 days (reference value: 68.37 +/- 4.42 mg/dl); assay type: organism-based; details: in vivo, 168 h
[34] = tested on: Mus musculus; experiment: Acute toxicity in Swiss albino mouse assessed as effect on neutrophil count up to 1000 mg/kg, po qd administered as single dose for 7 days; assay type: organism-based; details: in vivo, 168 h
[35] = tested on: Mus musculus; experiment: Acute toxicity in Swiss albino mouse assessed as effect on eosinophil count up to 1000 mg/kg, po qd administered as single dose for 7 days; assay type: organism-based; details: in vivo, 168 h

O=C1C=C(OCc2ccccc2)C(=O)c2ccccc21
Activity [1]: 30.19 U/L
IC50 [2]: > 150 µM
inhibition [3]: 36.6%
Activity [4]: Active
Activity [5]: Non-Toxic
Activity [6]: Non-Toxic
Activity [7]: Non-Toxic
Activity [8]: Non-Toxic
Activity [9]: Non-Toxic
Activity [10]: Non-Toxic
Activity [11]: 13.26 g/dL
Activity [12]: 13.28 g/dL
Activity [13]: 8.67 million/mm3
Activity [14]: 8.54 million/mm3
Activity [15]: 9.59 million/mm3
Activity [16]: 8.52 ×10³ /mm3
Activity [17]: 8.7 ×10³ /mm3
Activity [18]: 307.74 U/L
Activity [19]: 304.24 U/L
Activity [20]: 386.48 U/L
Activity [21]: 20.48 U/L
Activity [22]: 2.56 g/dL
Activity [23]: 2.88 g/dL
Activity [24]: 0.16 mg/dL
Activity [25]: 0.13 mg/dL
Activity [26]: 0.16 mg/dL
Activity [27]: 130.9 mg/dL
Activity [28]: 119.3 mg/dL
Activity [29]: 2.55 mg/mL
Activity [30]: 2.43 mg/mL
Activity [31]: 65.13 mg/dL
Activity [32]: 45.62 mg/dL
Activity [33]: 51.05 mg/dL
Activity [34]: Non-Toxic
Activity [35]: Non-Toxic

Source: ChEMBL document CHEMBL3877316, “Synthesis of pharmacologically important naphthoquinones and anticancer activity of 2-benzyllawsone through DNA topoisomerase-II inhibition” (Bioorg Med Chem, 2017)
